These results are taken from patent US20160279187A1, “CALPAIN INHIBITORS FOR IBD AND COLORECTAL CANCER TREATMENT” (UNIVERSITY OF HAWAII, priority 2013, published 2016).

Assay [1] addresses T1, M-Calpain activity in HT-29 cells (Homo sapiens, UniProt P17655).
T1 construct: endogenous in cells; host or cells: HT-29 human colorectal cancer cells
T1 sequence (P17655 20-700 limits assumed): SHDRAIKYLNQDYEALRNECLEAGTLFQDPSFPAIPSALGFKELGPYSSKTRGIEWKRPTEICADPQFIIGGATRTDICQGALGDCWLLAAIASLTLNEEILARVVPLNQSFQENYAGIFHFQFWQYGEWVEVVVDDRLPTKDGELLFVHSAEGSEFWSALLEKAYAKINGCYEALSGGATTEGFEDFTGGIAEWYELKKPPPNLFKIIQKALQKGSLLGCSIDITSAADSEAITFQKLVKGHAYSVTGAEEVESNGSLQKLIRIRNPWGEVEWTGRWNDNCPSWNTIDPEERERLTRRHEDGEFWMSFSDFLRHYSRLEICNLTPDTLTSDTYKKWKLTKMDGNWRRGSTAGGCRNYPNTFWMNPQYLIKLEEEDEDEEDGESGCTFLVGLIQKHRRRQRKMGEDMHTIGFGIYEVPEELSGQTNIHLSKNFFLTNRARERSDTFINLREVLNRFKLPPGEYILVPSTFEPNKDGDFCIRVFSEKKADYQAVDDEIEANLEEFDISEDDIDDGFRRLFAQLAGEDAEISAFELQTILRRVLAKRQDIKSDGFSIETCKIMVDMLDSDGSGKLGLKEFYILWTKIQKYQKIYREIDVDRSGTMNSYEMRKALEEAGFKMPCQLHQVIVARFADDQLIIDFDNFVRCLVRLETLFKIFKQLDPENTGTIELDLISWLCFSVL
T1 sequence (P04632 1-268 partner): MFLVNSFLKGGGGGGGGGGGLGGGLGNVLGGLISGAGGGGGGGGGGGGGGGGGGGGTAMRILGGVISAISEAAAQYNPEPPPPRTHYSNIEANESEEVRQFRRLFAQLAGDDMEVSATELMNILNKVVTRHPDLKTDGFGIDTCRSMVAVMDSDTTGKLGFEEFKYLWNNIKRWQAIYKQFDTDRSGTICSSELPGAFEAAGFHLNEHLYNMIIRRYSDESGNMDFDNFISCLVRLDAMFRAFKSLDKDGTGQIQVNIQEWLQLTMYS
Kind of assay: Calpain Activity Assay Kit (BioVision), HT-29. It is filed as cell-based. The note with it: HT-29, vs DMSO, 1 hour. How it is done:
Bone marrow derived macrophages (BMDM) were prepared as previously described by methods known to those skilled in the art. On day 5 of culture, 2×10^6 BMDM were seeded in 6-well plates and the following day were primed for 18 h with TNFα (20 ng/mL), followed by 1 h stimulation with E. faecalis (1 μg/mL; ATCC). Stimulation with E. faecalis was conducted in the presence of the zLLY-CH2F calpain-2 inhibitor (20 μg/mL) or DMSO as a control. Media was removed from treated BMDM, centrifuged at 300×g for 5 min and supernatent analyzed using the Cytometric Bead Array Mouse Inflammation Kit (BD Biosciences, San Jose, Calif.). Cytokine data were analyzed using Flowjo software (Ashland, Oreg.) and GraphPad Prism version 4.0 (GraphPad, La Jolla, Calif.). Cell pellets were lysed and analyzed for IκB and NFκB by Western blot as previously described (Miyazaki, T. et al. Journal of Atherosclerosis and Thrombosis 20, 228-237, 2013). […] Each day 4 wells were quantified using Celltiter MTS reagent (Promega) and the resulting signal was used to generate a proliferation curve. Calpain activity was measured using a Calpain activity assay kit (BioVision, Inc., Milpitas, Calif.) as previously described. Colons were harvested on day 4 and calpain activity measured. […]

Assay [2] deals with Akt phosphorylation / FAK cleavage in colon cancer cells. Kind of assay: other m-calpain regulated pathways in colon cancer cells (Akt, FAK). In kind it is cell-based.

The structures appear in SMILES notation. Where a SMILES comes first, the peptide text is derived from it. The star is where a group is joined. Cbz = O=C(OCc1ccccc1)*; CH2F = FC*

As to `CC(C)C[C@H](NC(=O)OCc1ccccc1)C(=O)N[C@@H](CC(C)C)C(=O)N[C@@H](Cc1ccc(O)cc1)C(=O)CF` [zLLY-CH2F, Z-LLY-CH2F] (Cbz-Leu-Leu-Tyr-CH2F), the M-Calpain activity entry in assay [1] was “reduced”. In assay [2], the FAK cleavage entry is “not apparent” and the “phosphorylation of Akt” value is on record as “inhibited”.
